Biological target: T1, NMDA receptor in erythrocytes (Homo sapiens, UniProt Q05586)
T1 construct: Potassium and calcium fluxes through the NMDA receptor in erythrocytes of healthy donors (C) and patients with sickle cell anemia; endogenous in cells; host or cells: freshly isolated human erythrocytes (HbSS patients and healthy donors)
Assay: Unidirectional K+ (86Rb) and Ca2+ (45Ca) fluxes via the cation channel of the NMDA receptor, radioactive tracer kinetics
Type: cell-based
Conditions: for NMDA- and PGE2-sensitive increase in fluxes: stimulated by NMDA (100 μM) or prostaglandine E2 (2 μM), blocker added
Protocol: FIGS. 2A and 2B: Potassium and calcium fluxes through the NMDA receptor in erythrocytes of healthy donors (C) and patients with sickle cell anemia (H). 2A: Unidirectional K^+ influx measured in chloride-free Na-methane sulfate medium in the presence of 100 μM ouabain, the inhibitor of […]. Conditions corresponding to the numbers at the X axis: (1) control; (2) 50 μM memantine chloride (Sigma-Aldhdge); (3) 100 μM NMDA; (4) NMDA+memantine chloride; (5) 2 μM prostaglandine E2 (PGE2); (6) PGE2+memantine chloride. * denotes p<0.05 compared to the corresponding values in healthy donor's erythrocytes, # stands for p<0.05 compared to the corresponding non-treated control. Data are means±SEM for 6-7 individuals. 2B: Unidirectional Ca^2+ influx in erythrocytes of a single HbSS patient measured on 3 different occasions and in three healthy donors. Conditions indicated in numbers at the X axis are: (1) non-treated control; (2) 100 μM NMDA; (3) 100 μM NMDA and 50 μM MK-801. * denotes p<0.05 compared to the corresponding healthy donors' samples.
The following experiments were conducted using fresh-isolated human erythrocytes of HbSS patients and healthy subjects.
Fluxes via the nonselective cation channel of the NMDA receptor were assessed using radioactive tracer kinetics. 86Rb was used as a radioactive tracer for K^+ and 45Ca as a tracer for Ca^2+. Fluxes through the red cell membrane were measures in the medium containing (mM) 145 Na-methane sulfate, 4 K-gluconate, 1 Ca-gluconate, 10 sucrose, 10 glucose and 10 HEPES-Tris (pH 7.4) in the presence of 100 μM L-arginine and 100 μM ouabain. Details of the flux measurement may be found elsewhere (e.g. Bogdanova et al., J Membr Biol. 2003; 195(1):33-42).

SMILES	NMDA- and PGE2-sensitive increase in fluxes	other results
C[C@]12N[C@H](Cc3ccccc31)c1ccccc12 [MK-801, Dizocilpine]	could be blocked	–
CN[C@H](CC(=O)O)C(=O)O [NMDA, N-methyl D-aspartate]	–	Fluxes of both cations (K+ and Ca2+) (agonist 100 μM): further stimulated
CC12CC3CC(C)(C1)CC(N)(C3)C2 [memantine, Memantine]	could be blocked	–
CCCCC[C@H](O)/C=C/[C@H]1[C@H](O)CC(=O)[C@@H]1C/C=C\CCCC(=O)O [prostaglandine E2]	–	Fluxes of both cations (K+ and Ca2+) (agonist 2 μM): further stimulated
